According to US9428466B2, “Methods for reducing uric acid levels using barbiturate derivatives” (priority 2013, dated 2016):
Read-outs that look alike come from different tables or passages of the source.

Columns and labels:
URAT1 (SLC22A12) = URAT1 (SLC22A12) (Homo sapiens (Human), UniProt Q96S37); assay: URAT1 cellular uptake assay (3H-orotate transport, stably transfected URAT-1/CHO cells); type: cell-based; settings: 3H-orotate uptake, 7 concentrations 0.01 to 150 μM, read-out: URAT1 IC50 (μM ± SEM)
Chain of URAT1 (SLC22A12) (Q96S37 whole entry): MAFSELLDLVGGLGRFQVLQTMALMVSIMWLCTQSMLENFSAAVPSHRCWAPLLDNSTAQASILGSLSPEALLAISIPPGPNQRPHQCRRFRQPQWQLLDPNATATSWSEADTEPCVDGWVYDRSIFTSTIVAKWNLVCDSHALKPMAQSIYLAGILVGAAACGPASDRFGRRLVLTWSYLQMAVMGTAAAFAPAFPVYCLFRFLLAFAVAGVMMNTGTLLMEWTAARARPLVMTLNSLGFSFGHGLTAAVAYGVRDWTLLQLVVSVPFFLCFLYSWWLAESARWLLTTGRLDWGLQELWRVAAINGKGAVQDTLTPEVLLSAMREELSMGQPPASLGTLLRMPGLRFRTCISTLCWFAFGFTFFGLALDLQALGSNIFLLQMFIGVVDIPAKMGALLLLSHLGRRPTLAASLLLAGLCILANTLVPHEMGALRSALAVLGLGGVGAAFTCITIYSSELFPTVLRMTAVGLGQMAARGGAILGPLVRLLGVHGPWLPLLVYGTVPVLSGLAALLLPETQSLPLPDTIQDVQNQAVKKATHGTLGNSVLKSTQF
Procedure: URAT1 (SLC22A12) activity was evaluated in a cellular uptake assay using a 96-well plate with stably transfected URAT-1/CHO cells. ^3H-orotate was used as the test transport agent, which was measured in a liquid scintillation counter, using benzbromarone as a positive control, and DMSO and non-transfected CHO cells as negative controls (Solvo Biotechnology, Boston, Mass.).

xanthine oxidase [1] = molecular target: T1, xanthine oxidase (Homo sapiens (Human), UniProt P47989); assay: Fluorescence-based xanthine oxidase activity assay; type: biochemical; settings: triplicate, 10 concentrations
T1 sequence (P47989 whole entry, species assumed): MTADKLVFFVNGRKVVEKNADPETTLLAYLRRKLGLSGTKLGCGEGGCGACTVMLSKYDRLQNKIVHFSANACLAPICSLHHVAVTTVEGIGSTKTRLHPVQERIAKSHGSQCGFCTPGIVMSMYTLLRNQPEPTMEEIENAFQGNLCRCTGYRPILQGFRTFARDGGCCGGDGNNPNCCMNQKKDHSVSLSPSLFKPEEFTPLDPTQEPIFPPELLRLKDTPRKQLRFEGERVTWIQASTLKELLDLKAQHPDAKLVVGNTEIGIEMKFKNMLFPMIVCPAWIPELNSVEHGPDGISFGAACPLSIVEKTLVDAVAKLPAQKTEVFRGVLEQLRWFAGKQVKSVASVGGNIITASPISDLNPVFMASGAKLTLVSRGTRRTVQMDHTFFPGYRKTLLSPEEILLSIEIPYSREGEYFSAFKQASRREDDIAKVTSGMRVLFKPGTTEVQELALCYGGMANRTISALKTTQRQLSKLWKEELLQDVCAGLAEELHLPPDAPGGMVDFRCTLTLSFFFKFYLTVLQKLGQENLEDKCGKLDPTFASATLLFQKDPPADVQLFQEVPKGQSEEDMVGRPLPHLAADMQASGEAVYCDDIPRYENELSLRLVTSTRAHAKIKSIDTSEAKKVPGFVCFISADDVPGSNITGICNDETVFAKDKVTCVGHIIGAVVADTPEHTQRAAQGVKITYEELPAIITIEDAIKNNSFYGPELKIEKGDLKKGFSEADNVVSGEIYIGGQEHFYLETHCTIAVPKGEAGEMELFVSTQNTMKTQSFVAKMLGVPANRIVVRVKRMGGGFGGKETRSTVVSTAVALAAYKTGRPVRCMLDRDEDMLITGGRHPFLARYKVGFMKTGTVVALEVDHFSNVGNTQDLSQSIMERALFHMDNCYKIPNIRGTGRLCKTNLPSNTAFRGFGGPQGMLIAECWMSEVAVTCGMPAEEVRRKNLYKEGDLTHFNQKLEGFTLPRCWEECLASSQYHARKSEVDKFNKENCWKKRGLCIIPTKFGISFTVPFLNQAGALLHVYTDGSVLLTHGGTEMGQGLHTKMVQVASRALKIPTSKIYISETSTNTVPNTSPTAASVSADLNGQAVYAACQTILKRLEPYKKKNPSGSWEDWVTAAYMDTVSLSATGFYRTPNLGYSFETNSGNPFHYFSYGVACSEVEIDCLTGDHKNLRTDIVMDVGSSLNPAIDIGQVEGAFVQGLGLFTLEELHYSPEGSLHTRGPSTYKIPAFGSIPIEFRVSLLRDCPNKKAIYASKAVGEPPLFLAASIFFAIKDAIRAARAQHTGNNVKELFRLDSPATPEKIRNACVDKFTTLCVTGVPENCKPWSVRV
Procedure: Xanthine oxidase inhibition was determined using a standard fluorescence-based assay for xanthine oxidase activity (McHale A, Grimes H, Coughlan M P: Int J Biochem. 10:317-9, 1979) with minor variations. […] Experiments on test compounds were performed in triplicate in multi-well plates using 10 concentrations of each compound that ranged over a 3-fold dilution.

CHO-K1 cells = assay: In vitro mouse micronucleus assay (a test for cytotoxicity); type: cell-based; settings: 24 hr without S9 and 4 hr with S9, 62 μM-1000 μM
Procedure: The in vitro mouse micronucleus assay was conducted in CHO-K1 cells seeded in 96-well plates and treated with test compounds for 24 hr (without S9) and for 4 hr (with S9). Cytochalasin B was added after 24 hr, and the cells were incubated for an additional 24 hr, after which the cells were fixed and scored for micronuclei. The assay was run using 6 concentrations in duplicate (62 μM-1000 μM), and data for the highest 5 concentrations that were not cytotoxic were reported. Cellular nuclei and micronuclei were stained, and an automated fluorescent microscopic detection system was used to score micronuclei in approximately 2,000 bi-nucleated cells per concentration.

xanthine oxidase [2] = molecular target: T1, xanthine oxidase; settings: data taken from publications; cited from earlier work

SMILES | IC50 (URAT1 (SLC22A12)) [µM] | IC50 (xanthine oxidase [1]) [nM] | Mouse Micronucleus (CHO-K1 cells) | IC50 (xanthine oxidase [2]) [µM]
O=C(Nc1ccccc1)c1c(O)[nH]c(=O)[nH]c1=O [2-oxo-desthiomerbarone, 1,2,3,4-tetrahydro-6-hydroxy-2,4-dioxo-N-phenyl-5-pyrimidinecarboxamide] | 1.2 | > 300000 | Positive | 
O=C(Nc1ccc(O)cc1)c1c(O)[nH]c(=O)[nH]c1=O [4′-hydroxy-2-oxo-desthiomerbarone, 1,2,3,4-tetrahydro-6-hydroxy-2,4-dioxo-N-(4′-hydroxyphenyl)-5-pyrimidinecarboxamide] | 2.6 ± 0.6 | 1060 | Negative | 
O=C(Nc1ccc(O)cc1)c1c(O)[nH]c(=S)[nH]c1=O [4′-hydroxymerbarone, 1,2,3,4-tetrahydro-6-hydroxy-2-thioxo-4-oxo-N-(4′-hydroxyphenyl)-5-pyrimidinecarboxamide] | 9.4 ± 0.6 | 680 | Negative | 
O=C(O)CSc1nnc(Br)n1-c1ccc(C2CC2)c2ccccc12 [Lesinurad, lesinurad] |  |  |  | > 300
O=C1NC(=S)NC(=O)C1C(=O)Nc1ccccc1 [Merbarone, 5-(N-phenylcarboxamido)-2-thio-barbituric acid, reference compound] | 5.4 ± 1 | 274000 | Positive | 
